Reference: ChEMBL document CHEMBL3885861, “Open TG-GATES”

Species: Rattus norvegicus
Experiment: Open TG-GATES - Regimen: Single
Type: toxicity, organism-based, Sprague-Dawley
Design: regimen Single, gender Male, age 6 weeks
Conditions: in vivo, po, route gavage; for gamma-GTP / ALP / ALT / AST / BUN / CRE / Ca / Cl / DBIL / GLC / IP / K / LDH / Na / PL / RALB / TBIL / TC / TG / TP: tissue Plasma; for APTT / Bas / Eos / Fbg / Hb / Ht / Lym / MCH / MCHC / MCV / Mono / Neu / PT / Plat / RBC / Ret: tissue Blood; for KIDNEY_L / KIDNEY_R / KIDNEY_TOTAL: tissue Kidney; for LIVER: tissue Liver
[1] = 300 mg/kg, 3 h, dose level Middle
[2] = 300 mg/kg, 6 h, dose level Middle
[3] = 300 mg/kg, 9 h, dose level Middle
[4] = 300 mg/kg, 24 h, dose level Middle
[5] = 1000 mg/kg, 3 h, dose level High
[6] = 1000 mg/kg, 6 h, dose level High
[7] = 1000 mg/kg, 9 h, dose level High
[8] = 1000 mg/kg, 24 h, dose level High

COc1ccc2[nH]c([S+]([O-])Cc3ncc(C)c(OC)c3C)nc2c1 (configuration not stated) [OMEPRAZOLE]
gamma-GTP (100 mg/kg, 24 h, dose level Low): 1.2 IU/L
TERMINAL_BW [1]: 223.6 g
APTT [1]: 18.7 s
Bas [1]: 0%
Eos [1]: 1%
Fbg [1]: 216.4 mg/dL
Hb [1]: 12.4 g/dL
Ht [1]: 36.4%
Lym [1]: 73.2%
MCH [1]: 21.2 pg
MCHC [1]: 33.9%
MCV [1]: 62.3 fL
Mono [1]: 3.4%
Neu [1]: 22.2%
PT [1]: 12.7 s
Plat [1]: 128.9 x10_4/uL
RBC [1]: 584.6 x10_4/ul
Ret [1]: 8.2%
KIDNEY_L [1]: 1 g
KIDNEY_R [1]: 1 g
KIDNEY_TOTAL [1]: 1.9 g
LIVER [1]: 9.8 g
ALP [1]: 904.2 IU/L
ALT [1]: 31.8 IU/L
AST [1]: 67.2 IU/L
BUN [1]: 10.2 mg/dL
CRE [1]: 0.4 mg/dL
Ca [1]: 10.6 mg/dL
Cl [1]: 100.6 meq/L
DBIL [1]: 0.064 mg/dL
GLC [1]: 194.8 mg/dL
IP [1]: 9.4 mg/dL
K [1]: 3.9 meq/L
LDH [1]: 202 IU/L
Na [1]: 139.6 meq/L
PL [1]: 146.4 mg/dL
RALB [1]: 3.3 g/dL
TBIL [1]: 0.1 mg/dL
TC [1]: 80.2 mg/dL
TG [1]: 70.2 mg/dL
TP [1]: 5.4 g/dL
gamma-GTP [1]: 1.6 IU/L
TERMINAL_BW [2]: 217.5 g
APTT [2]: 19 s
Bas [2]: 0%
Eos [2]: 1%
Fbg [2]: 216.4 mg/dL
Hb [2]: 13.1 g/dL
Ht [2]: 38.3%
Lym [2]: 74.4%
MCH [2]: 21.2 pg
MCHC [2]: 34.3%
MCV [2]: 61.8 fL
Mono [2]: 3.8%
Neu [2]: 20.6%
PT [2]: 12.9 s
Plat [2]: 124 x10_4/uL
RBC [2]: 620.6 x10_4/ul
Ret [2]: 6.5%
KIDNEY_L [2]: 1 g
KIDNEY_R [2]: 1 g
KIDNEY_TOTAL [2]: 2 g
LIVER [2]: 9.4 g
ALP [2]: 913.6 IU/L
AST [2]: 66 IU/L
BUN [2]: 10 mg/dL
CRE [2]: 0.4 mg/dL
Ca [2]: 10.3 mg/dL
Cl [2]: 100.8 meq/L
DBIL [2]: 0.066 mg/dL
GLC [2]: 192 mg/dL
IP [2]: 9.7 mg/dL
K [2]: 4.1 meq/L
LDH [2]: 171.2 IU/L
Na [2]: 140 meq/L
PL [2]: 145.6 mg/dL
RALB [2]: 3.3 g/dL
TBIL [2]: 0.1 mg/dL
TC [2]: 72.8 mg/dL
TG [2]: 74.4 mg/dL
TP [2]: 5.5 g/dL
gamma-GTP [2]: 1.4 IU/L
TERMINAL_BW [3]: 218.4 g
APTT [3]: 22.1 s
Bas [3]: 0%
Eos [3]: 1%
Fbg [3]: 223.8 mg/dL
Hb [3]: 12.7 g/dL
Ht [3]: 37%
Lym [3]: 76.6%
MCH [3]: 21.4 pg
MCHC [3]: 34.3%
MCV [3]: 62.4 fL
Mono [3]: 3.2%
Neu [3]: 18.4%
PT [3]: 12.9 s
Plat [3]: 117.1 x10_4/uL
RBC [3]: 593.4 x10_4/ul
Ret [3]: 6.7%
KIDNEY_L [3]: 0.9 g
KIDNEY_R [3]: 0.9 g
KIDNEY_TOTAL [3]: 1.9 g
LIVER [3]: 9.1 g
ALP [3]: 761.6 IU/L
ALT [3]: 27.6 IU/L
AST [3]: 62.8 IU/L
BUN [3]: 8.2 mg/dL
CRE [3]: 0.3 mg/dL
Ca [3]: 10.2 mg/dL
Cl [3]: 101.4 meq/L
DBIL [3]: 0.068 mg/dL
GLC [3]: 195.4 mg/dL
IP [3]: 9.5 mg/dL
K [3]: 3.9 meq/L
LDH [3]: 175.8 IU/L
Na [3]: 140.8 meq/L
PL [3]: 133.2 mg/dL
RALB [3]: 3.4 g/dL
TBIL [3]: 0.1 mg/dL
TC [3]: 70.4 mg/dL
TG [3]: 74 mg/dL
TP [3]: 5.4 g/dL
gamma-GTP [3]: 0.8 IU/L
TERMINAL_BW [4]: 229.5 g
APTT [4]: 20.6 s
Bas [4]: 0%
Eos [4]: 1%
Fbg [4]: 230.2 mg/dL
Hb [4]: 13.5 g/dL
Ht [4]: 39.6%
Lym [4]: 81.2%
MCH [4]: 20.6 pg
MCHC [4]: 34.1%
MCV [4]: 60.4 fL
Mono [4]: 3%
Neu [4]: 14.6%
PT [4]: 12.7 s
Plat [4]: 129 x10_4/uL
RBC [4]: 654.6 x10_4/ul
Ret [4]: 6.1%
KIDNEY_L [4]: 1 g
KIDNEY_R [4]: 1 g
KIDNEY_TOTAL [4]: 2 g
LIVER [4]: 11.8 g
ALP [4]: 1087 IU/L
ALT [4]: 35 IU/L
AST [4]: 65.8 IU/L
BUN [4]: 15.4 mg/dL
CRE [4]: 0.4 mg/dL
Ca [4]: 10.3 mg/dL
Cl [4]: 101 meq/L
DBIL [4]: 0.1 mg/dL
GLC [4]: 205.2 mg/dL
IP [4]: 9.4 mg/dL
K [4]: 3.8 meq/L
LDH [4]: 207 IU/L
Na [4]: 140.8 meq/L
PL [4]: 146.4 mg/dL
RALB [4]: 3.3 g/dL
TBIL [4]: 0.2 mg/dL
TC [4]: 72 mg/dL
TG [4]: 139.4 mg/dL
TP [4]: 5.5 g/dL
gamma-GTP [4]: 1 IU/L
TERMINAL_BW [5]: 220.8 g
APTT [5]: 18.6 s
Bas [5]: 0%
Eos [5]: 1%
Fbg [5]: 201.8 mg/dL
Hb [5]: 12.4 g/dL
Ht [5]: 36.3%
Lym [5]: 74.8%
MCH [5]: 21.2 pg
MCHC [5]: 34.3%
MCV [5]: 61.9 fL
Mono [5]: 3%
Neu [5]: 21%
PT [5]: 13.3 s
Plat [5]: 120.5 x10_4/uL
RBC [5]: 586.6 x10_4/ul
Ret [5]: 6.8%
KIDNEY_L [5]: 1 g
KIDNEY_R [5]: 1 g
KIDNEY_TOTAL [5]: 2 g
LIVER [5]: 9.8 g
ALP [5]: 966.6 IU/L
ALT [5]: 31.6 IU/L
AST [5]: 66 IU/L
BUN [5]: 11.2 mg/dL
CRE [5]: 0.4 mg/dL
Ca [5]: 10.2 mg/dL
Cl [5]: 100.6 meq/L
DBIL [5]: 0.072 mg/dL
GLC [5]: 208.8 mg/dL
IP [5]: 9.2 mg/dL
K [5]: 4 meq/L
LDH [5]: 174.6 IU/L
Na [5]: 140 meq/L
PL [5]: 140.8 mg/dL
RALB [5]: 3.3 g/dL
TBIL [5]: 0.1 mg/dL
TC [5]: 73.4 mg/dL
TG [5]: 56.8 mg/dL
TP [5]: 5.4 g/dL
gamma-GTP [5]: 0.8 IU/L
TERMINAL_BW [6]: 221 g
APTT [6]: 19.3 s
Bas [6]: 0%
Eos [6]: 1.2%
Fbg [6]: 208.8 mg/dL
Hb [6]: 12.9 g/dL
Ht [6]: 37.2%
Lym [6]: 70.6%
MCH [6]: 21.5 pg
MCHC [6]: 34.9%
MCV [6]: 61.8 fL
Mono [6]: 4.4%
Neu [6]: 23.2%
PT [6]: 13.2 s
Plat [6]: 129.9 x10_4/uL
RBC [6]: 602.4 x10_4/ul
Ret [6]: 7.1%
KIDNEY_L [6]: 1 g
KIDNEY_R [6]: 1.1 g
KIDNEY_TOTAL [6]: 2.1 g
LIVER [6]: 9.8 g
ALP [6]: 940.2 IU/L
ALT [6]: 27 IU/L
AST [6]: 65.6 IU/L
BUN [6]: 10 mg/dL
CRE [6]: 0.4 mg/dL
Ca [6]: 10.2 mg/dL
Cl [6]: 100.8 meq/L
DBIL [6]: 0.072 mg/dL
GLC [6]: 192.2 mg/dL
IP [6]: 9.7 mg/dL
K [6]: 4 meq/L
LDH [6]: 178.8 IU/L
Na [6]: 139.8 meq/L
PL [6]: 145.8 mg/dL
RALB [6]: 3.3 g/dL
TBIL [6]: 0.1 mg/dL
TC [6]: 78.8 mg/dL
TG [6]: 57 mg/dL
TP [6]: 5.5 g/dL
gamma-GTP [6]: 1.2 IU/L
TERMINAL_BW [7]: 219.2 g
APTT [7]: 18.3 s
Bas [7]: 0%
Eos [7]: 1%
Fbg [7]: 228.6 mg/dL
Hb [7]: 12.8 g/dL
Ht [7]: 37.1%
Lym [7]: 75.8%
MCH [7]: 21.3 pg
MCHC [7]: 34.6%
MCV [7]: 61.4 fL
Mono [7]: 3.4%
Neu [7]: 19%
PT [7]: 12.9 s
Plat [7]: 120.2 x10_4/uL
RBC [7]: 603.8 x10_4/ul
Ret [7]: 6.4%
KIDNEY_L [7]: 1 g
KIDNEY_R [7]: 1 g
KIDNEY_TOTAL [7]: 1.9 g
LIVER [7]: 9.6 g
ALP [7]: 705 IU/L
AST [7]: 62 IU/L
BUN [7]: 8 mg/dL
CRE [7]: 0.3 mg/dL
Ca [7]: 10.2 mg/dL
Cl [7]: 100.8 meq/L
DBIL [7]: 0.08 mg/dL
GLC [7]: 195.2 mg/dL
IP [7]: 10 mg/dL
K [7]: 3.8 meq/L
LDH [7]: 174.4 IU/L
Na [7]: 141 meq/L
PL [7]: 153.2 mg/dL
RALB [7]: 3.5 g/dL
TBIL [7]: 0.1 mg/dL
TC [7]: 80.4 mg/dL
TG [7]: 59.8 mg/dL
TP [7]: 5.5 g/dL
gamma-GTP [7]: 0.6 IU/L
TERMINAL_BW [8]: 226 g
APTT [8]: 19.9 s
Bas [8]: 0%
Eos [8]: 1%
Fbg [8]: 207.8 mg/dL
Hb [8]: 12.9 g/dL
Ht [8]: 37.7%
Lym [8]: 81.4%
MCH [8]: 21 pg
MCHC [8]: 34.1%
MCV [8]: 61.6 fL
Mono [8]: 4%
Neu [8]: 13.4%
PT [8]: 13.1 s
Plat [8]: 129.5 x10_4/uL
RBC [8]: 613.8 x10_4/ul
Ret [8]: 6.2%
KIDNEY_L [8]: 1 g
KIDNEY_R [8]: 1 g
KIDNEY_TOTAL [8]: 2.1 g
LIVER [8]: 12.1 g
ALP [8]: 924 IU/L
ALT [8]: 32.6 IU/L
AST [8]: 64.8 IU/L
BUN [8]: 11.2 mg/dL
CRE [8]: 0.4 mg/dL
Ca [8]: 10.1 mg/dL
Cl [8]: 100.6 meq/L
DBIL [8]: 0.1 mg/dL
GLC [8]: 200.4 mg/dL
IP [8]: 9.2 mg/dL
K [8]: 4.2 meq/L
LDH [8]: 230 IU/L
Na [8]: 140.6 meq/L
PL [8]: 162.8 mg/dL
RALB [8]: 3.4 g/dL
TBIL [8]: 0.2 mg/dL
TC [8]: 83.4 mg/dL
TG [8]: 169.2 mg/dL
TP [8]: 5.4 g/dL
gamma-GTP [8]: 1 IU/L
